In this assay the target is human PDE5 (Homo sapiens, UniProt O76074). As to the kind of experiment: PDE5 inhibition, IMAP fluorescence polarization phosphodiesterase assay. Type of assay: biochemical. The following applies: for inhibition at 10 µM: read-out: % PDE5 inhibition at 10 μM. A general note: Polarisation of emitted light reports the rotation of a fluorescent probe.

Where only a bound is given, the exact number is not on record here.

On to `COC(=O)[C@H]1Cc2c([nH]c3ccccc23)[C@@H](c2ccc(Br)cc2)N1` [Compound 1, Methyl (1R,3R)-1-(4-bromophenyl)-2,3,4,9-tetrahydro-1H-β-carboline-3-carboxylate], for which the inhibition at 10 µM came out at 10%.

With `CCN1C(=O)[C@@H]2Cc3c([nH]c4ccccc34)[C@H](c3ccc(Br)cc3)N2C1=O` [Compound 7, (5S,11aS)-5-(4-Bromophenyl)-2-ethyl-5,6,11,11a-tetrahydro-1H-imidazo[1′,5′:1,6]pyrido[3,4-b]indole-1,3(2H)-dione], the inhibition at 10 µM came to 79.8%.

Regarding `CCN1CC(=O)N2[C@@H](c3ccc(Br)cc3)c3[nH]c4ccccc4c3C[C@@H]2C1=O` [Compound 30, (6S,12aR)-2-Ethyl-6-(4-bromophenyl)-2,3,6,7,12,12a-hexahydropyrazino [1′,2′:1,6]pyrido[3,4-b]indole-1,4-dione], the midpoint of inhibition, the IC50, lay at 1.9 µM and the inhibition at 10 µM worked out at 97.9%.

Consider `CC(C)(C)N1CC(=O)N2[C@@H](c3ccc(Br)cc3)c3[nH]c4ccccc4c3C[C@@H]2C1=O` [Compound 38, (6S,12aR)-6-(4-Bromophenyl)-2-tert-butyl-2,3,6,7,12,12a-hexahydropyrazino [1′,2′:1,6]pyrido[3,4-b]indole-1,4-dione], for which the inhibition at 10 µM came to 27%.

For `CN1CC(=O)N2[C@@H](c3ccc(Br)cc3)c3[nH]c4ccccc4c3C[C@H]2C1=O` [Compound 27, (6S,12aS)-6-(4-Bromophenyl)-2-methyl-2,3,6,7,12,12a-hexahydropyrazino [1′,2′:1,6]pyrido[3,4-b]indole-1,4-dione], the IC50 is 1.9 µM and the inhibition at 10 µM is 87%.

With `CCN1CC(=O)N2[C@@H](c3ccc(Br)cc3)c3[nH]c4ccccc4c3C[C@H]2C1=O` [Compound 31, (6S,12aS)-2-Ethyl-6-(4-bromophenyl)-2,3,6,7,12,12a-hexahydropyrazino [1′,2′:1,6]pyrido[3,4-b]indole-1,4-dione], inhibition was half-maximal at 0.22 µM (IC50) and the inhibition at 10 µM came out at 83%.

With `CC(C)(C)N1CC(=O)N2[C@@H](c3ccc(Br)cc3)c3[nH]c4ccccc4c3C[C@H]2C1=O` [Compound 39, (6S,12aS)-6-(4-Bromophenyl)-2-tert-butyl-2,3,6,7,12,12a-hexahydropyrazino[1′,2′:1,6]pyrido[3,4-b]indole-1,4-dione], the inhibition at 10 µM came to 12%.

As for `CCC(C)N1C(=O)[C@H]2Cc3c([nH]c4ccccc34)[C@H](c3ccc(Br)cc3)N2C1=O` (stereo partly drawn) [Compound 14, (5S,11aR)-5-(4-Bromophenyl)-2-sec-butyl-5,6,11,11a-tetrahydro-1H-imidazo[1′,5′:1,6]pyrido[3,4-b]indole-1,3(2H)-dione], half-maximal inhibition (IC50) was put at 6 µM and the inhibition at 10 µM turned out to be 67%.

In the case of `COC(=O)[C@H]1Cc2c([nH]c3ccccc23)[C@H](c2ccc(Br)cc2)N1` [Compound 2, Methyl (1S,3R)-1-(4-bromophenyl)-2,3,4,9-tetrahydro-1H-β-carboline-3-carboxylate], the inhibition at 10 µM amounted to 10%.

Take `CCN1C(=O)[C@H]2Cc3c([nH]c4ccccc34)[C@H](c3ccc(Br)cc3)N2C1=O` [Compound 6, (5S,11aR)-5-(4-Bromophenyl)-2-ethyl-5,6,11,11a-tetrahydro-1H-imidazo[1′,5′:1,6]pyrido[3,4-b]indole-1,3(2H)-dione]: the IC50 was found to be 3.9 µM and the inhibition at 10 µM stood at 89.3%.

For the compound `CC(C)(C)N1C(=O)[C@@H]2Cc3c([nH]c4ccccc34)[C@H](c3ccc(Br)cc3)N2C1=O` [Compound 19, (5S,11aS)-5-(4-Bromophenyl)-2-tert-butyl-5-(4-bromophenyl)-5,6,11,11a-tetrahydro-1H-imidazo[1′,5′:1,6]pyrido[3,4-b]indole-1,3(2H)-dione], under “10 μM, triplicate”, the “% PDE5 inhibition at 10 μM” value amounted to 38%.

As to `COC(=O)[C@@H]1Cc2c([nH]c3ccccc23)[C@H](c2ccc(Br)cc2)N1C(=O)CCl` [Compound 23, Methyl (1S,3S)-1-(4-bromophenyl)-2-(2-chloroacetyl)-2,3,4,9-tetrahydro-1H-β-carboline-3-carboxylate], the IC50 is greater than 10 µM and the inhibition at 10 µM worked out at 19%.

On to `CC(C)(C)N1C(=O)[C@@H]2Cc3c([nH]c4ccccc34)[C@@H](c3ccc(Br)cc3)N2C1=O` [Compound 20, (5R,11aS)-5-(4-Bromophenyl)-2-tert-butyl-5,6,11,11a-tetrahydro-1H-imidazo[1′,5′:1,6]pyrido[3,4-b]indole-1,3(2H)-dione], for which the IC50 came to 0.27 µM and the inhibition at 10 µM was found to be 94%.

As for `CCCCN1CC(=O)N2[C@@H](c3ccc(Br)cc3)c3[nH]c4ccccc4c3C[C@H]2C1=O` [Compound 35, (6S,12aS)-2-Butyl-6-(4-bromophenyl)-2,3,6,7,12,12a-hexahydropyrazino[1′,2′:1,6]pyrido[3,4-b]indole-1,4-dione], the IC50 is 5.9 µM and the inhibition at 10 µM was determined as 80%.

On to `CCC(C)N1C(=O)[C@@H]2Cc3c([nH]c4ccccc34)[C@@H](c3ccc(Br)cc3)N2C1=O` (stereo partly drawn) [Compound 16, (5R,11aS)-5-(4-Bromophenyl)-2-sec-butyl-5,6,11,11a-tetrahydro-1H-imidazo[1′,5′:1,6]pyrido[3,4-b]indole-1,3(2H)-dione], for which inhibition was half-maximal at 0.15 µM (IC50) and the inhibition at 10 µM was found to be 92%.

With `CCCCN1C(=O)[C@@H]2Cc3c([nH]c4ccccc34)[C@@H](c3ccc(Br)cc3)N2C1=O` [Compound 12, (5R,11aS)-5-(4-Bromophenyl)-2-butyl-5,6,11,11a-tetrahydro-1H-imidazo[1′,5′:1,6]pyrido[3,4-b]indole-1,3(2H)-dione], the inhibition at 10 µM is 106%.

On to `CCN1C(=O)[C@H]2Cc3c([nH]c4ccccc34)[C@@H](c3ccc(Br)cc3)N2C1=O` [Compound 5, (5R,11aR)-5-(4-Bromophenyl)-2-ethyl-5,6,11,11a-tetrahydro-1H-imidazo[1′,5′:1,6]pyrido[3,4-b]indole-1,3(2H)-dione], for which 2.8 µM corresponded to half-maximal inhibition (IC50) and the inhibition at 10 µM is 94.4%.

Regarding `COC(=O)[C@@H]1Cc2c([nH]c3ccccc23)[C@@H](c2ccc(Br)cc2)N1` [Compound 4, Methyl (1R,3S)-1-(4-bromophenyl)-2,3,4,9-tetrahydro-1H-β-carboline-3-carboxylate], the IC50 came out at 4.2 µM and the inhibition at 10 µM was found to be 75%.

As to `CC(C)(C)N1CC(=O)N2[C@H](c3ccc(Br)cc3)c3[nH]c4ccccc4c3C[C@H]2C1=O` [Compound 40, (6R,12aS)-6-(4-Bromophenyl)-2-tert-butyl-2,3,6,7,12,12a-hexahydropyrazino[1′,2′:1,6]pyrido[3,4-b]indole-1,4-dione], the inhibition at 10 µM is 21%.

On to `COC(=O)[C@@H]1Cc2c([nH]c3ccccc23)[C@H](c2ccc(Br)cc2)N1` [Compound 3, Methyl (1S,3S)-1-(4-bromophenyl)-2,3,4,9-tetrahydro-1H-β-carboline-3-carboxylate], for which the inhibition at 10 µM was 17%.

On to `CCCCN1C(=O)[C@H]2Cc3c([nH]c4ccccc34)[C@H](c3ccc(Br)cc3)N2C1=O` [Compound 10, (5S,11aR)-5-(4-Bromophenyl)-2-butyl-5,6,11,11a-tetrahydro-1H-imidazo[1′,5′:1,6]pyrido[3,4-b]indole-1,3(2H)-dione], for which the half-inhibitory concentration (IC50) is greater than 10 µM and the inhibition at 10 µM turned out to be 72.1%.

As usually defined, the inhibition is the relative decrease from the control value, in per cent. What is called IC50 is the concentration at which inhibition is half-maximal. The low end stands for inhibition by little substance, the high end for a need for much substance.

The values are drawn from paper PMC4994520 (European journal of medicinal chemistry, 2012).
